This passage reports IC50 and inhibition results from PubChem BioAssay AID624129 (Sanford-Burnham Center for Chemical Genomics, 2012).

What all share (assay): CXCR6 receptor antagonists, dose response, cell-based, beta-arrestin, DiscoveRx, APJ panel, uHTS hits (AID 624129)
Experiment [1] addresses C-X-C chemokine receptor type 6 (Homo sapiens) (UniProt O00574). The note with it: CXCR6 beta-arrestin (DiscoveRx) antagonist cell assay.
Experiment [2] deals with Beta-galactosidase (Escherichia coli) (UniProt Q8VNN2). The note with it: CXCR6 beta-arrestin (DiscoveRx) antagonist cell assay, b-galactosidase.
The target in experiment [3] is C-C chemokine receptor type 6 (Homo sapiens) (UniProt P51684). The settings on record: CXCR6 beta-arrestin (DiscoveRx) antagonist cell assay.
The target of experiment [4] is Apelin receptor (Homo sapiens) (UniProt P35414). The settings on record: CXCR6 beta-arrestin (DiscoveRx) antagonist cell assay, APJ.
Where [5] appears, read: CXCR6, dose range 1, mean IC50 across replicates.
Where [6] appears, read: dose range 1, mean IC50 across replicates.
Setting [7] is: CCR6, dose range 1, mean IC50 across replicates.
[8] abbreviates: CXCR6, run 1, dose range 2, at 80 µM (top of the series).

The source made the active and inactive calls. The rule behind the calls is not given here.

Chain of Beta-galactosidase (Escherichia coli) (Q8VNN2 whole entry, looked up): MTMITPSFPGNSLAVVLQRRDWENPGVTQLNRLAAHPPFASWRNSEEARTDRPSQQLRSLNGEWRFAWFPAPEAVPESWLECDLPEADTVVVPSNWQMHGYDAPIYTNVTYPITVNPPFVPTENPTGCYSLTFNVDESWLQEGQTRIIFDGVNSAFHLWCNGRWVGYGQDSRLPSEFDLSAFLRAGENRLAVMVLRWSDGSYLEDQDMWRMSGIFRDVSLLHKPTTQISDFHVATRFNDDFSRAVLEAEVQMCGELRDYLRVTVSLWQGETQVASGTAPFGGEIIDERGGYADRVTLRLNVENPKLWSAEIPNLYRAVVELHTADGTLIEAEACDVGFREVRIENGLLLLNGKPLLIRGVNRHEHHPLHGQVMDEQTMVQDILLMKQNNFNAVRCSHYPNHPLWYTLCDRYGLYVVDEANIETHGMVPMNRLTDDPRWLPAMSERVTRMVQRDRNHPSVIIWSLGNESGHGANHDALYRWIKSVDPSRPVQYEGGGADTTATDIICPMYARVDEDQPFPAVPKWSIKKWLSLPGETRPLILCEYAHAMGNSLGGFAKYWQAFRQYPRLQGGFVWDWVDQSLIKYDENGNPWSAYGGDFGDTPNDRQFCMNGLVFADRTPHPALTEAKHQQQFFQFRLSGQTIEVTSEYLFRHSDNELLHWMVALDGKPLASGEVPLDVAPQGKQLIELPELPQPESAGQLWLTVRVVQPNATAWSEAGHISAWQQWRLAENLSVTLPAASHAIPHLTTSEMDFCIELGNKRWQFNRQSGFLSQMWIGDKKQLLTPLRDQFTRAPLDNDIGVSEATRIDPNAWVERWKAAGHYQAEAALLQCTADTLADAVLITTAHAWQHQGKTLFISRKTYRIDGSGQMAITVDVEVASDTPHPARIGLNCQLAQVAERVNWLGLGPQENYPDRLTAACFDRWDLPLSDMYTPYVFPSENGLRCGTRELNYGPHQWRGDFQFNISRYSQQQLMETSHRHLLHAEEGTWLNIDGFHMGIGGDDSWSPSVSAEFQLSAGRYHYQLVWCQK
Chain of C-X-C chemokine receptor type 6 (Homo sapiens) (O00574 whole entry, looked up): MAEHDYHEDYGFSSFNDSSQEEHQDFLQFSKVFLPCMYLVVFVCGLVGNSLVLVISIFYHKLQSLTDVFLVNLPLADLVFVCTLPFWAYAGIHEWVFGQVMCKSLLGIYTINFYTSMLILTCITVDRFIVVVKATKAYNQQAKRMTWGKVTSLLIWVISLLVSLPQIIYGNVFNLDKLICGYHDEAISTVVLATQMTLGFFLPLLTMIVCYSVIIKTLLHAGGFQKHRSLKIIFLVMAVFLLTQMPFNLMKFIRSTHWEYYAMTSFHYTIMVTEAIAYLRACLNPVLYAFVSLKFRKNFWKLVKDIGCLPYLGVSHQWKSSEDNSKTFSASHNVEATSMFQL

With `Cc1cc(C)c2c(=O)n(CC(=O)Nc3cccc(Cl)c3C)sc2n1`, the IC50 (usually the concentration at which inhibition is half-maximal) in experiment [1] (CXCR6, dose range 1) was 2.68 µM; in experiment [1] (setting [5]), 2.42 µM; in experiment [1] (CXCR6, run 2, dose range 1) it was 2.16 µM; in experiment [2] (dose range 1), > 80 µM (inactive); in experiment [2] (setting [6]), more than 80 µM; in experiment [3] (CCR6, dose range 1), 1.85 µM. The IC50 was 2.69 µM in experiment [3] (setting [7]); 3.52 µM in experiment [3] (CCR6, run 2, dose range 1); 1.69 µM in experiment [4] (dose range 1); 3.11 µM in experiment [4] (setting [6]); 5.55 µM in experiment [4] (run 2, dose range 1); 2.1 µM in experiment [4] (run 3, dose range 1). Besides, in experiment [1] (CXCR6, run 1, dose range 2, at 40 µM (top of the series)), the inhibition (commonly the relative decrease from the control value, in per cent) worked out at 96.5%.

Turning to `CCS(=O)(=O)c1ncc(Cl)c(C(=O)Nc2ccc(S(=O)(=O)N3CCCC(C)C3)cc2)n1` (stereo unspecified), the IC50 was 9.52 µM in experiment [1] (CXCR6, dose range 1); 9.06 µM in experiment [1] (setting [5]); 7.57 µM in experiment [1] (CXCR6, run 1, dose range 2); 10.3 µM in experiment [1] (CXCR6, run 2, dose range 1); 8.84 µM in experiment [1] (CXCR6, run 2, dose range 2); > 80 µM (inactive) in experiment [2] (dose range 1). Further, the IC50 in experiment [2] (setting [6]) is more than 80 µM; in experiment [3] (CCR6, dose range 1), 6.92 µM; in experiment [3] (setting [7]), 7.16 µM; in experiment [3] (CCR6, run 2, dose range 1) it was 7.39 µM; in experiment [4] (dose range 1), 9.3 µM; in experiment [4] (setting [6]) it was 8.75 µM. Besides, the IC50 came to 8.93 µM in experiment [4] (run 2, dose range 1) and 8.02 µM in experiment [4] (run 3, dose range 1).

Regarding `O=C(CSc1cccc2cccnc12)N1CCCC1`, the IC50 in experiment [1] (CXCR6, dose range 1) is 10.7 µM; in experiment [1] (setting [5]), 6.17 µM; in experiment [1] (CXCR6, run 1, dose range 2) it was 4.06 µM; in experiment [1] (CXCR6, run 2, dose range 1), 6.29 µM; in experiment [1] (CXCR6, run 2, dose range 2), 3.6 µM; in experiment [2] (dose range 1), > 80 µM (inactive). For the same molecule, the 50% inhibitory concentration (IC50) in experiment [2] (setting [6]) is more than 80 µM; in experiment [3] (CCR6, dose range 1) it was 4.22 µM; in experiment [3] (setting [7]), 5.29 µM; in experiment [3] (CCR6, run 2, dose range 1), 6.36 µM; in experiment [4] (dose range 1), 4.54 µM; in experiment [4] (setting [6]) it was 5.35 µM. Further, the IC50 was 6.22 µM in experiment [4] (run 2, dose range 1) and 5.31 µM in experiment [4] (run 3, dose range 1).

Turning to `NNc1nc(-c2ccccc2)cc(-c2ccccc2O)n1`, the IC50 in experiment [1] (CXCR6, dose range 1) was 9.66 µM; in experiment [1] (setting [5]), 6.87 µM; in experiment [1] (CXCR6, run 1, dose range 2), 3.62 µM; in experiment [1] (CXCR6, run 2, dose range 1), 7.93 µM; in experiment [1] (CXCR6, run 2, dose range 2) it was 6.29 µM; in experiment [2] (dose range 1), > 80 µM (inactive). Further, the concentration for half-maximal inhibition (IC50) in experiment [2] (setting [6]) was more than 80 µM; in experiment [3] (CCR6, dose range 1), 7.84 µM; in experiment [3] (setting [7]), 7.29 µM; in experiment [3] (CCR6, run 2, dose range 1), 6.75 µM; in experiment [4] (dose range 1), 5.81 µM; in experiment [4] (setting [6]), 8.52 µM. Also, the IC50 turned out to be 9.7 µM in experiment [4] (run 2, dose range 1) and 10 µM in experiment [4] (run 3, dose range 1).

On to `CCC(=O)OCCNc1cc(Sc2nc3ccccc3s2)c2nonc2c1[N+](=O)[O-]`, for which the IC50 was 8.94 µM in experiment [1] (CXCR6, dose range 1); 8.4 µM in experiment [1] (setting [5]); 10 µM in experiment [1] (CXCR6, run 1, dose range 2); 8.87 µM in experiment [1] (CXCR6, run 2, dose range 1); 5.77 µM in experiment [1] (CXCR6, run 2, dose range 2); > 80 µM (inactive) in experiment [2] (dose range 1). Further, the IC50 was more than 80 µM in experiment [2] (setting [6]); 8.93 µM in experiment [3] (CCR6, dose range 1); 8.72 µM in experiment [3] (setting [7]); 8.5 µM in experiment [3] (CCR6, run 2, dose range 1); 32.9 µM in experiment [4] (dose range 1); 28 µM in experiment [4] (setting [6]). Besides, the IC50 in experiment [4] (run 2, dose range 1) was 23.1 µM; in experiment [4] (run 3, dose range 1) it was more than 80 µM.

Regarding `CN(C)C(=O)CSc1cccc2cccnc12`, the IC50 in experiment [1] (CXCR6, dose range 1) is > 80 µM (inactive); in experiment [1] (setting [5]), more than 80 µM; in experiment [1] (CXCR6, run 2, dose range 1) it was more than 80 µM; in experiment [2] (dose range 1) it was > 80 µM (inactive); in experiment [2] (setting [6]) it was more than 80 µM; in experiment [3] (setting [7]), more than 80 µM. Moreover, the IC50 in experiment [3] (CCR6, run 2, dose range 1) was more than 80 µM; in experiment [4] (setting [6]), more than 80 µM; in experiment [4] (run 2, dose range 1), more than 80 µM; in experiment [4] (run 3, dose range 1), more than 80 µM. For the same molecule, the inhibition in experiment [1] (setting [8]) was -25%.

With `Oc1c(Cl)cc(Cl)c2cccnc12`, the IC50 is 4.45 µM in experiment [1] (CXCR6, dose range 1); 4.17 µM in experiment [1] (setting [5]); 3.89 µM in experiment [1] (CXCR6, run 2, dose range 1); > 80 µM (inactive) in experiment [2] (dose range 1); more than 80 µM in experiment [2] (setting [6]); 2.48 µM in experiment [3] (CCR6, dose range 1). Besides, the IC50 in experiment [3] (setting [7]) was 2.71 µM; in experiment [3] (CCR6, run 2, dose range 1), 2.94 µM; in experiment [4] (dose range 1), 3.23 µM; in experiment [4] (setting [6]), 3.82 µM; in experiment [4] (run 2, dose range 1), 4.91 µM; in experiment [4] (run 3, dose range 1) it was 3.34 µM. The inhibition in experiment [1] (setting [8]) amounted to 90.2%.

Regarding `CCOc1ccc(NCC(=O)c2ccc(C)cc2)cc1`, the IC50 result in experiment [1] (CXCR6, dose range 1) is “inactive”. Moreover, the IC50 in experiment [1] (setting [5]) is 20.7 µM; in experiment [1] (CXCR6, run 2, dose range 1), more than 80 µM; in experiment [2] (dose range 1) it was > 80 µM (inactive); in experiment [2] (setting [6]), more than 80 µM; in experiment [3] (CCR6, dose range 1), 14.2 µM; in experiment [3] (setting [7]), 16.3 µM. Moreover, the IC50 in experiment [3] (CCR6, run 2, dose range 1) was 18.3 µM; in experiment [4] (dose range 1) it was 20.7 µM; in experiment [4] (setting [6]), 24.3 µM; in experiment [4] (run 2, dose range 1), 27.9 µM; in experiment [4] (run 3, dose range 1) it was more than 80 µM. In addition, the inhibition in experiment [1] (setting [8]) was 38.7%.
